Marks after values point to notes of the source that are not given here.
Experiments:
[1] = biological target: mouse vasopressin V1a receptor (Mus musculus, UniProt Q62463); test: Mouse vasopressin V1a receptor binding assay; details: 1321N1 cell membranes; read-out: Ki (nM) on mV1a cell line
From the text: Mouse Vasopressin V1a Receptor Binding Assay Cells and Radioligand
The immortalized 1321N1 cell line (B9/1321N1 clone) constitutively and stably expressing Mouse vasopressin V1a receptor vasopressin (8-L-Arginine), [Phenylalanyl-3,4,5-^3H(N)] labelled compound (Perkin Elmer Life and Analytical Sciences) as radioligand were used to determine the affinity of the prepared compounds.
Membrane-preparation: Membrane preparation of immortalized 1321N1 cells expressing the propagated mouse Vasopressin V1a receptor was made according to Jarvis's method (Jarvis et al., J Pharmacol Exp Ther […], 310:407-16). Cells were suspended in preparative buffer (50 mM Tris, 1 mM EDTA, 0.1 mM PMSF) and homogenized with glass homogenizing potter. To separate the raw membrane fraction two consecutive centrifugation procedures (40,000 g for 25 minutes at 4° C.) were executed, then the membrane was taken into the preparatory buffer during a final washing step, it was divided into aliquots which were stored at −80° C. until the time of measurement.
The protein content of the prepared membrane was determined according to Lowry's method using standard dilution line of bovine serum albumin (BSA) (Lowry et al., J Biol Chem 1951, 193:265-75).
(§1) To determine the final affinity value, the results of at least two independent experiments were taken into account.
(§2) Non-specific binding values were determined in the presence of an unlabeled 1.2×10^−6 M (Arg^8)-vasopressin. Samples were incubated in a total volume of 0.33 ml for 60 minutes at 27° C. Membrane-bound and free ligands were separated by filtration through a 0.5% polyethyleneimine-impregnated UniFilter® GF/B™ After drying the filter plates, 40 μl Microscint-20 (Packard) scintillation cocktail was added to the samples. Finally, radioactivity was measured using MicroBeta^2 Microplate Counter (Perkin Elmer).
(§3) The radioligand clamping ability of a substance is determined in at least two independent experiments. Specific radioligand binding can be defined as the difference between total and non-specific binding in the presence of a saturation amount of the unlabeled ligand or different concentrations of the substance to be tested. The results are given as a percentage of inhibition of the specific binding achieved in the presence of the substance to be tested.
The IC50 data (i.e. the concentration of the unknown substance which displaces 50% of specific bound radioligand) is calculated from the concentration-displacement curve using the sigmoid fitting mathematical method y=(A1−A2)/(1+(x/x0)p)+A2 with Origin 7.5. software (OriginLab Corporation, Northampton, USA). During fitting, the asymptotes are not fixed. The Ki values (inhibition constant) are given with Cheng-Prusoff equation Ki=IC50/[1+(L/KD)] wherein [L] is the radioligand concentration used in the experiment and [KD] is the affinity of the radioactively labelled ligand for the given receptor. The KD is determined beforehand using the Scatchard curve.

[2] = biological target: human vasopressin V2 receptor (Homo sapiens, UniProt P30518); test: Human vasopressin V2 receptor binding assay on 1321N1 cell line; details: 1321N1 cell line; read-out: Ki on hV2 1321N1 cell line
human vasopressin V2 receptor, sequence (P30518 whole entry): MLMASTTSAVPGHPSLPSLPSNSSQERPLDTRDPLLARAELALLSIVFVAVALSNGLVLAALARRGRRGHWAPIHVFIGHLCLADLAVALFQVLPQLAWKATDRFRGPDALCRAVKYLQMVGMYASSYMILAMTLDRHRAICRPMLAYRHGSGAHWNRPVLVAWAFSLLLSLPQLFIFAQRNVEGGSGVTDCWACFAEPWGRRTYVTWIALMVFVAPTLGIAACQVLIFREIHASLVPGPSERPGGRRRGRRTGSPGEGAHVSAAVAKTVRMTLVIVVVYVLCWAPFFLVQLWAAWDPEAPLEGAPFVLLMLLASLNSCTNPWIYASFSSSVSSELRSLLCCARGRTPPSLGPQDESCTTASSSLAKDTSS
Protocol: Human Vasopressin V2 Receptor Binding Assay Cells and Radioligand
as §1
as §2, with “0.55” for “0.33”, “90” for “60”, “GF/B™.” for “GF/B™”
as §3, with “displacement” for “clamping”
During fitting, the asymptotes are not fixed. The Ki values (inhibition constant) are given with Cheng-Prusoff equation Ki=IC50/[1+(L/KD)] wherein [L] is the radioligand concentration used in the experiment and [KD] is the affinity of the radioactively labelled ligand for the given receptor. The KD is determined beforehand using the Scatchard curve.

[3] = biological target: mouse V1a receptor (Mus musculus, UniProt Q62463); test: Functional V1a in vivo test: inhibition of oxytocin-induced scratching behaviour; details: mice
mouse V1a receptor, sequence (Q62463 whole entry): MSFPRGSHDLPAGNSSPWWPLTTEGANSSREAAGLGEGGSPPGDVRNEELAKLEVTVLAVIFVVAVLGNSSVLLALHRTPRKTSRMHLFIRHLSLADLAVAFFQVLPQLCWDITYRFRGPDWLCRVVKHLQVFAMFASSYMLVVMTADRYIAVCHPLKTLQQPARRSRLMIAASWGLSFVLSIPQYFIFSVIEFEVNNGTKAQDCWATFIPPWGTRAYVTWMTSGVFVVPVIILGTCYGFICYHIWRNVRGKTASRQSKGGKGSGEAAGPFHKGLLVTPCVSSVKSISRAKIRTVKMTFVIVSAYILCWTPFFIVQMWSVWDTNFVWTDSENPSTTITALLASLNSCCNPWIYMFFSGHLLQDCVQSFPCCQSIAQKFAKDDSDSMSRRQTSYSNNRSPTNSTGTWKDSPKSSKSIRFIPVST
Protocol: Functional V1a In Vivo Test
Male mice (NMRI, ToxiCoop) weighing 18-40 g were used. Animals were kept at least 5 days after delivery, during housing and measurements they were fed and drink ad libitum. The experiments were permitted by the Local Animal Protection Committee and carried out in accordance with the European Animal Protection Directives (EU Directive 2010/63/EU).
Animal behaviour was measured by an automated behavioral analysis system (LABORAS™). The sensors located below platforms detect the mechanical vibration generated by the movement of animal, and transform into an electrical signal (Quinn et al., J Neurosci Methods 2003, 130:83-92). After analyzing signals, the system analyzes the time spent with the following behavioral parameters: locomotion, immobility, climbing, grooming. The grooming algorithm by definition is able to measure the scratching behavioral response. During the experiment, mice were pretreated with the test substance or vehicle, and after the pretreatment period scratching-inducing compound (s.c. 0.3 mg/kg oxytocin) was administered, and then the animals were individually placed into measuring cages. […] To reduce the exploratory activity, the animals were measured after a 1-hour habituation to the cage. The behavioural parameters were compared to the parallel measured parameters of the control animals.
The behavioural inhibitory effect of the substances was calculated with average values of parallel measured vehicle treated groups and presented as the percentage of inhibition: 0% was expressed as average value of scratching behaviour of vehicle pretreated animals (and phys. saline s.c. pretreated with vehicle), while 100% was expressed as average value of scratching of vehicle pretreated animals that received oxytocin subcutaneously. For statistical analysis one-way analysis of variance (ANOVA) with Tukey post hoc test were used.

mouse vasopressin V1a receptor, sequence (Q62463 whole entry): as above

Ki [1] [nM] | Ki [2] [nM] | inhibition (%) of oxytocin-induced scratching behaviour response ([3]; 10 mg/kg p.o. pretreatment) [%] | inhibition (%) of oxytocin-induced scratching behaviour response ([3]; after i.p. treatment (table title: 10 mg/kg)) | SMILES
161 | 3050 | 64 | – | N[C@@H]1Cc2cc(Cl)ccc2-n2c(nnc2[C@H]2CC[C@H](Oc3ccccn3)CC2)C1 [Example 8, (5R)-8-chloro-1-[trans-4-(pyridin-2-yloxy)cyclohexyl]-5,6-dihydro-4H-[1,2,4]triazolo[4,3-a][1]benzazepine-5-amine]
31 | 1190 | – | 106* % | CC(=O)NC1Cc2cc(Cl)ccc2-n2c(nnc2[C@H]2CC[C@H](Oc3ccccn3)CC2)C1 (stereo partly drawn) [Example 9, N-{8-chloro-1-[trans-4-(pyridin-2-yloxy)cyclohexyl]-5,6-dihydro-4H-[1,2,4]triazolo[4,3-a][1]benzazepin-5-yl}acetamide]
43 | 662 | 70 | – | O=C1Cc2cc(Cl)ccc2-n2c(nnc2[C@H]2CC[C@H](Oc3ccccn3)CC2)C1 [Example 54, 8-chloro-1-[trans-4-(pyrin-2-yloxy)cyclohexyl]-4H-[1,2,4]triazolo[4,3-a][1]benzazepin-5(6H)-one]
21 | 469 | 91 | – | OC1Cc2cc(Cl)ccc2-n2c(nnc2[C@H]2CC[C@H](Oc3ccccn3)CC2)C1 (stereo partly drawn) [Example 55, 8-chloro-1-[trans-4-(pyridin-2-yloxy)cyclohexyl]-5,6-dihydro-4H-[1,2,4]triazolo[4,3-a][1]benzazepin-5-ol]
12 | 446 | 84 | – | O[C@@H]1Cc2cc(Cl)ccc2-n2c(nnc2[C@H]2CC[C@H](Oc3ccccn3)CC2)C1 [Example 57, (5R)-8-chloro-1-[trans-4-(pyridin-2-yloxy)cyclohexyl]-5,6-dihydro-4H-[1,2,4]triazolo[4,3-a][1]benzazepin-5-ol]
0.6 | 53 | 99 | – | Brc1ccc2c(c1)CC1(Cc3nnc([C@H]4CC[C@H](Oc5ccccn5)CC4)n3-2)OCCO1 [Example 62, 8′-bromo-1′-[trans-4-(pyridin-2-yloxy)cyclohexyl]-4′H,6′H-spiro[1,3-dioxolane-2,5′ [1,2,4]triazolo[4,3-a][1]benzazepine]]
13 | 575 | 49 | – | c1ccc(O[C@H]2CC[C@H](c3nnc4n3-c3ccccc3CC3(C4)OCCO3)CC2)nc1 [Example 63, 1′-[trans-4-(pyridin-2-yloxy)cyclohexyl]-4′H,6′H-spiro[1,3-dioxolane-2,5′-[1,2,4]triazolo[4,3-a][1]benzazepine]]

Reference: patent US11298363B2, “Triazolobenzazepines as vasopressin V1a receptor antagonists” (RICHTER GEDEON NYRT., priority 2017, dated 2022)
